The record followed here is patent EP3441076A1, “PHARMACEUTICAL PRODUCT FOR TREATING TUMOR AND COMBINED IMMUNE DEFECT, AND PREPARATION AND APPLICATION THEREOF” (Beijing Lu De Kai Qi Co., Ltd., priority 2016, dated 2017).

SMILES strings stand for the structures. Read-outs that look alike come from different tables or passages of the source. Marks after values point to notes of the source that are not given here.

Series [1] has as its system polychromatic erythrocytes in bone marrow of mice. The note with it: for Number of micronucleus (in Ge) / Micronucleus rate: 50 mg/kg•bw, positive control; for Number of micronucleus (in Ge): 5000 cells examined; for Micronucleus rate: P<0.01 vs negative control.
Description: The walnut extract, the wormwood extract, and the clove bud extract were respectively subjected to a water bath at 70°C for 1 hour, soaked for 12 hours, and concentrated for testing.
(§1) The healthy Kunming mice provided by the Experimental Animal Center of the National Institute for the Control of Pharmaceutical and Biological Products were selected.
The test was carried out via oral gavage and the administration was performed twice at intervals of 24 hrs. 50 mice weighing 25-30 g were randomly divided into 5 groups according to body weight, 10 in each group, half male and half female. […] The doses of the anti-tumor pharmaceutical product for combined immunization according to the present invention were 1.25, 2.50, and 5.00 g/kg•bw, respectively, and the desired concentrations were adjusted with distilled water. The animals were sacrificed by cervical dislocation six hours after the last administration of the anti-tumor pharmaceutical product for combined immunization according to the present invention. The bone marrow of sternum was acquired and diluted with calf serum, smeared, fixed with methanol, and stained with Giemsa. Under the light microscope, 1000 polychromatic erythrocytes (PRC) were counted per animal, and the incidence of micronucleus was calculated by the permillage of micronucleus-containing PRC and statistically processed.
Setting [2] is: all dose groups, statistical comparison with distilled water group.

Description for sperm: Test materials: The walnut extract, the wormwood extract, and the clove bud extract were all prepared in the same manner as in Example 1. The walnut extract, the wormwood extract, and the clove bud extract were respectively subjected to a water bath at 70°C for 1 hour, soaked for 12 hours, and concentrated for testing.
as §1
Fifty sexually mature male mice weighing 30-35 g were randomly divided into 5 groups. […] The doses of the anti-tumor pharmaceutical product for combined immunization according to the present invention were 1.25, 2.50, and 5.00 g/kg•bw, and the desired concentration were adjusted with distilled water. The mice were administered via oral gavage once a day for 5 days, and the animals were sacrificed 30 days after the last gavage. The epididymis was acquired and sectioned and stained with eosin. Five animals were counted in each group and 1000 intact sperm were counted per animal. The incidence of sperm abnormality (in percentage) was calculated and statistically processed.

As for `O=P1(N(CCCl)CCCl)NCCCO1` (centres unmarked) [cp, cyclophosphamide], the “difference in incidence of sperm abnormality from the negative control group” value in the series on sperm (setting [2]) was “extremely significant”. Also, the “Number of abnormal sperms (in Ge)” value in the series with sperm (male mice, 40 mg/kg•bw, positive control, 5000 sperms examined) is recorded as 517. Besides, the “Rate of sperm abnormality” value in the series on sperm (male mice, 40 mg/kg•bw, positive control, P<0.01 vs negative control) was 10.34* %. Moreover, the results for the “Number of micronucleus (in Ge)” value in series [1] (Female mice) and in series [1] (Male mice) were 144 and 164, respectively. Besides, the Micronucleus rate in series [1] (Female mice) is given as 28.8* ‰; in series [1] (Male mice), 32.8* ‰. In series [1] (setting [2]), the “difference in micronucleus rate from the negative control group” value is “extremely significant”.
